# Results: patent EP4582426A1, “PAN-KRAS INHIBITOR COMPOUND” (Adlai Nortye Biopharma Co., Ltd., priority 2022, dated 2024)
# Experiments:
# [1] = system: AsPC-1 (G12D); assay: In vitro cell proliferation inhibition test (CellTiter-Glo Luminescent Cell Viability Assay); assay type: cell-based; conditions: AsPC-1 cell line, Pancreas, KRAS (p.G12D), cells and compounds co-incubated 72 hours
# Excerpt: (§1) Due to the diversity of RAS mutations and in order to evaluate the activity of compounds in different RAS mutant cell lines, we selected KRAS^WT, KRAS^G12C, KRAS^G12D), KRAS^G12V and BRAF mutant cell lines (see the table below) for in vitro activity evaluation and screening of compounds .
# (§2) Experimental protocol: CellTiter-Glo® Cell Luminescent Viability Assay (Promega)
# (§3) According to the doubling time of different cell lines, different numbers of cells (1000-5000 cells/well) were inoculated into 96-well plates containing 180 µl of the corresponding medium, and cultured overnight in a 37°C cell incubator containing 5% CO2. On the second day, the compound to be tested was pre-diluted 3-fold with the medium, the highest concentration was 100 µM, and there were 10 concentration gradients in total; then 20 µl of the medium containing different concentrations of the compound was added to the cells in the 96-well plate to ensure the final concentration of the compound to be up to 10 µM, with 10 concentration gradients of 3-fold dilutions. After co-incubating cells and compounds for 72 hours, the 96-well plate was taken out of the incubator, placed at room temperature for 30 minutes, and then 25 µl CellTiter-Glo® Reagent was added to each well to mix well, and incubated at room temperature for 10 minutes, and then 100 µl of the sample was transferred to a white 96-well plate (OptiPlateTM-96, PerkinElmer), the […] signal value was read using a multi-functional microplate reader (SpectraMax® i3x, Molecular devices). Subsequently, the signal value was standardized, and the four-parameter fitting regression equation was used for curve fitting to calculate the half maximal inhibitory concentration (IC50) of the compound on the cell line. Table 3: Antiproliferative activity of compounds of the present invention on KRAS cell mutants
# [2] = system: SW480 (G12V); assay: as above; assay type: cell-based; conditions: SW480 cell line, Large intestine, Colon, KRAS (p.G12V), cells and compounds co-incubated 72 hours
# Excerpt: as §1, §2, §3
IC50 ([1]; listed as 4'),IC50 ([2]; listed as 4'),Compound,IC50 [1],IC50 [2],IC50 ([1]; listed as 1'),IC50 ([2]; listed as 1')
–,–,"CCn1c(-c2cc(C#CCN(C)C)cnc2C(C)OC)c2c3cc(ccc31)-c1csc(n1)CC(NC(=O)C1C(C)C1C)C(=O)N1CCCC(N1)C(=O)OCC(C)(C)C2 [Example 58, (1r,2R,3S)-N-((6^3S,4S,Z)-1^2-(5-(3-(dimethylamino)prop-1-yn-1-yl)-2-((S)-1-methoxyethyl)pyridin-3-yl)-1^1-ethyl-10,10-dimethyl-5,7-dioxo-6^1,6^2,6^3,6^4,6^5,6^6-hexahydro-1^1H-8-oxa-2(4,2)-thiazola-1(5,3)-indola-6(1,3)-pyridazinacycloundecaphane-4-yl)-2,3-dimethylcyclopropane-1-carboxamide]",0.7 nM,0.24 nM,–,–
–,–,"CCn1c(-c2cc(C#CC3CCNCC3)cnc2[C@H](C)OC)c2c3cc(ccc31)-c1csc(n1)C[C@H](NC(=O)[C@H]1C[C@@H]1C)C(=O)N1CCC[C@H](N1)C(=O)OCC(C)(C)C2 [Example 48, (1S,2S)-N-((6^3S,4S,Z)-1^1-ethyl-1^2-(2-((S)-1-methoxyethyl)-5-(piperidin-4-ylethynyl)pyridin-3-yl)-10,10-dimethyl-5,7-dioxo-6^1,6^2,6^3,6^4,6^5,6^6-hexahydro-1^1H-8-oxa-2(4,2)-thiazola-1(5,3)-indola-6(1,3)-pyridazinacycloundecaphane-4-yl)-2-methylcyclopropane-1-carboxamide]",5.4 nM,1.7 nM,–,–
523 nM,813 nM,"CCn1c(-c2cc(C#CCN3CCO[C@@H](C)C3)cnc2[C@H](C)OC)c2c3cc(ccc31)-c1csc(n1)C[C@H](NC(=O)[C@H]1C[C@@H]1C)C(=O)N1CCC[C@H](N1)C(=O)OCC(C)(C)C2 (single isomer, unassigned) [Example 4]",4.9 nM,2.9 nM,–,–
–,–,"CCn1c(-c2cc(C#CCN3CCN(C)CC3)cnc2[C@H](C)OC)c2c3cc(ccc31)-c1csc(n1)C[C@H](NC(=O)[C@H]1[C@H](C)[C@@H]1C)C(=O)N1CCC[C@H](N1)C(=O)OCC(C)(C)C2 [Example 52, (1r,2R,3S)-N-((6^3S,4S,Z)-1^1-ethyl-1^2-(2-((S)-1-methoxyethyl)-5-(3-(4-methylpiperazin-1-yl)prop-1-yn-1-yl)pyridin-3-yl)-10,10-dimethyl-5,7-dioxo-6^1,6^2,6^3,6^4,6^5,6^6-hexahydro-1^1H-8-oxa-2(4,2)-thiazola-1(5,3)-indola-6(1,3)-pyridazinacycloundecaphane-4-yl)-2,3-dimethylcyclopropane-1-carboxamide]",0.24 nM,0.3 nM,–,–
–,–,"CCn1c(-c2cc(C#CCN3CCOC(CO)C3)cnc2C(C)OC)c2c3cc(ccc31)-c1csc(n1)CC(NC(=O)C1CC1C)C(=O)N1CCCC(N1)C(=O)OCC(C)(C)C2 (single isomer, unassigned) [Example 20]",2.4 nM,8.9 nM,–,–
–,–,"CCn1c(-c2cc(C#CCN3CCOCC3)cnc2C(C)OC)c2c3cc(ccc31)-c1csc(n1)CC(NC(=O)C1CC1F)C(=O)N1CCCC(N1)C(=O)OCC(C)(C)C2 (single isomer, unassigned) [Example 24]",24.2 nM,58.4 nM,–,–
–,–,"CCn1c(-c2cc(C#CCN3CCN(C(C)=O)CC3)cnc2C(C)OC)c2c3cc(ccc31)-c1csc(n1)CC(NC(=O)C1C(C)C1C)C(=O)N1CCCC(N1)C(=O)OCC(C)(C)C2 [Example 41, (1r,2R,3S)-N-((6^3S,4S,Z)-1^2-(5-(3-(4-acetylpiperazin-1-yl)prop-1-yn-1-yl)-2-((S)-1-methoxyethyl)pyridin-3-yl)-1^1-ethyl-10,10-dimethyl-5,7-dioxo-6^1,6^2,6^3,6^4,6^5,6^6-hexahydro-1^1H-8-oxa-2(4,2)-thiazola-1(5,3)-indola-6(1,3)-pyridazinacycloundecaphane-4-yl)-2,3-dimethylcyclopropane-1-carboxamide]",0.56 nM,0.65 nM,–,–
–,–,"CCn1c(-c2cc(C#CCN3CCC(F)C3)cnc2C(C)OC)c2c3cc(ccc31)-c1csc(n1)CC(NC(=O)C1C(C)C1C)C(=O)N1CCCC(N1)C(=O)OCC(C)(C)C2 (single isomer, unassigned) [Example 21]",0.82 nM,1.1 nM,–,–
–,–,"CCn1c(-c2cc(C#Cc3cccc4c3CN(C)C4)cnc2[C@H](C)OC)c2c3cc(ccc31)-c1csc(n1)C[C@H](NC(=O)[C@H]1C[C@@H]1C)C(=O)N1CCC[C@H](N1)C(=O)OCC(C)(C)C2 (single isomer, unassigned) [Example 30]",8.2 nM,84.2 nM,–,–
–,–,"CCn1c(-c2cc(C#CCN3CCOCC3)cnc2[C@H](C)OC)c2c3cc(ccc31)-c1csc(n1)C[C@H](NC(=O)[C@H]1C[C@@H]1C)C(=O)N1CCC[C@H](N1)C(=O)OCC(C)(C)C2 (single isomer, unassigned) [Example 1]",0.92 nM,1.02 nM,582 nM,343 nM
–,–,"(1r,2R,3S)-N-((6^3S,4S,Z)-12-(5-(3-((S)-3-(ethoxymethyl)morpholino)prop-1-yn-1-yl)-2-((S)-1-methoxyethyl)pyridin-3-yl)-1^1-ethyl-10,10-dimethyl-5,7-dioxo-6^1,6^2,6^3,6^4,6^5,6^6-hexahydro-1^1H-8-oxa-2(4,2)-thiazola-1(5,3)-indola-6(1,3)-pyridazinacycloundecaphane-4-yl)-2,3-dimethylcyclopropane-1-carboxamide [Example 37]",1.01 nM,0.68 nM,–,–
–,–,"CCn1c(-c2cc(C#CCN3CCN(C)CC3)cnc2[C@H](C)OC)c2c3cc(ccc31)-c1csc(n1)C[C@H](NC(=O)[C@H]1C[C@@H]1C)C(=O)N1CCC[C@H](N1)C(=O)OCC(C)(C)C2 [Example 60, (1S,2S)-N-((6^3S,4S,Z)-1^1-ethyl-1^2-(2-((S)-1-methoxyethyl)-5-(3-(4-methylpiperazin-1-yl)prop-1-yn-1-yl)pyridin-3-yl)-10,10-dimethyl-5,7-dioxo-6^1,6^2,6^3,6^4,6^5,6^6-hexahydro-1^1H-8-oxa-2(4,2)-thiazola-1(5,3)-indola-6(1,3)-pyridazinacycloundecaphane-4-yl)-2-methylcyclopropane-1-carboxamide]",1.71 nM,1.55 nM,–,–
–,–,"(1r,2R,3S)-N-((6^3S,4S,Z)-1^1-ethyl-1^2-(5-(3-((R)-3-(hydroxymethyl)morpholino)prop-1-yn-1-yl)-2-((S)-1-methoxyethyl)pyridin-3-yl)-10,10-dimethyl-5,7-dioxo-6^1,6^2,6^3,6^4,6^5,6^6-hexahydro-1^1H-8-oxa-2(4,2)-thiazola-1(5,3)-indola-6(1,3)-pyridazinacycloundecaphane-4-yl)-2,3-dimethylcyclopropane-1-carboxamide [Example 38]",0.07 nM,0.18 nM,–,–
–,–,"CCn1c(-c2cc(C#CCN3CCOCC3)cnc2[C@H](C)OC)c2c3cc(ccc31)-c1csc(n1)C[C@H](NC(=O)C1CC1)C(=O)N1CCC[C@H](N1)C(=O)OCC(C)(C)C2 [Example 54, N-((6^3S,4S,Z)-1^1-ethyl-1^2-(2-((S)-1-methoxyethyl)-5-(3-morpholinoprop-1-yn-1-yl)pyridin-3-yl)-10,10-dimethyl-5,7-dioxo-6^1,6^2,6^3,6^4,6^5,6^6-hexahydro-1^1H-8-oxa-2(4,2)-thiazola-1(5,3)-indola-6(1,3)-pyridazinacycloundecaphane-4-yl)cyclopropanecarboxamide]",17.3 nM,35 nM,–,–
